In PubChem BioAssay (NCI):
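Briefly, cells in 96-well plates were exposed to five compound concentrations for 48 h, and endpoints were estimated by linear interpolation. GI50 is the concentration that inhibits growth by half. The concentration for full growth arrest is given as TGI.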

Key:
Assay in all cases: NCI-60 cell line screen, 48 h
786-0 renal = system: 786-0 renal
A498 renal = system: A498 renal
A549 NSCLC = system: A549 NSCLC
ACHN renal = system: ACHN renal
BT-549 breast = system: BT-549 breast
CAKI-1 renal = system: CAKI-1 renal
CCRF-CEM leukemia = system: CCRF-CEM leukemia
COLO 205 colon = system: COLO 205 colon
DU-145 prostate = system: DU-145 prostate
HCC-2998 colon = system: HCC-2998 colon
HCT-116 colon = system: HCT-116 colon
HCT-15 colon = system: HCT-15 colon
HL-60(TB) leukemia = system: HL-60(TB) leukemia
HOP-62 NSCLC = system: HOP-62 NSCLC
HOP-92 NSCLC = system: HOP-92 NSCLC
HS 578T breast = system: HS 578T breast
HT29 colon = system: HT29 colon
IGROV1 ovarian = system: IGROV1 ovarian
K-562 leukemia = system: K-562 leukemia
KM12 colon = system: KM12 colon
LOX IMVI melanoma = system: LOX IMVI melanoma
M14 melanoma = system: M14 melanoma
MALME-3M melanoma = system: MALME-3M melanoma
MCF7 breast = system: MCF7 breast
MDA-MB-231 breast = system: MDA-MB-231 breast
MDA-MB-435 = system: MDA-MB-435
MOLT-4 leukemia = system: MOLT-4 leukemia
NCI-H226 lung = system: NCI-H226 lung
NCI-H23 lung = system: NCI-H23 lung
NCI-H460 lung = system: NCI-H460 lung
NCI-H522 lung = system: NCI-H522 lung
NCI/ADR-RES ovarian = system: NCI/ADR-RES ovarian
OVCAR-3 ovarian = system: OVCAR-3 ovarian
OVCAR-4 ovarian = system: OVCAR-4 ovarian
OVCAR-5 ovarian = system: OVCAR-5 ovarian
OVCAR-8 ovarian = system: OVCAR-8 ovarian
PC-3 prostate = system: PC-3 prostate
RPMI-8226 leukemia = system: RPMI-8226 leukemia
SF-268 CNS = system: SF-268 CNS
SF-295 CNS = system: SF-295 CNS
SF-539 CNS = system: SF-539 CNS
SK-MEL-2 melanoma = system: SK-MEL-2 melanoma
SK-MEL-28 melanoma = system: SK-MEL-28 melanoma
SK-MEL-5 melanoma = system: SK-MEL-5 melanoma
SK-OV-3 ovarian = system: SK-OV-3 ovarian
SN12C renal = system: SN12C renal
SNB-19 CNS = system: SNB-19 CNS
SNB-75 CNS = system: SNB-75 CNS
SR leukemia = system: SR leukemia
SW-620 colon = system: SW-620 colon
T-47D breast = system: T-47D breast
TK-10 renal = system: TK-10 renal
UACC-257 melanoma = system: UACC-257 melanoma
UACC-62 melanoma = system: UACC-62 melanoma
UO-31 renal = system: UO-31 renal

Q: How did the GI50 (786-0 renal) turn out when `Cc1[nH]c2ccccc2c(=O)c1CC=C(Cl)Cl` was run?
A: 35.3 µM

Q: What about the TGI (786-0 renal) of the same compound?
A: > 100 µM

Q: What about the GI50 (A498 renal) of the same compound?
A: 14.5 µM

Q: And the TGI (A498 renal)?
A: 86.8 µM

Q: What about the GI50 (A549 NSCLC) of the same compound?
A: 49.4 µM

Q: What about the TGI (A549 NSCLC) of the same compound?
A: > 100 µM

Q: What about the GI50 (ACHN renal) of the same compound?
A: 37.3 µM

Q: And the TGI (ACHN renal)?
A: > 100 µM

Q: And the GI50 (BT-549 breast)?
A: 47 µM

Q: What about the TGI (BT-549 breast) of the same compound?
A: > 100 µM

Q: And the GI50 (CAKI-1 renal)?
A: 63.9 µM

Q: What about the TGI (CAKI-1 renal) of the same compound?
A: > 100 µM

Q: And the GI50 (CCRF-CEM leukemia)?
A: > 100 µM

Q: What about the TGI (CCRF-CEM leukemia) of the same compound?
A: > 100 µM

Q: What about the GI50 (COLO 205 colon) of the same compound?
A: > 100 µM

Q: What about the TGI (COLO 205 colon) of the same compound?
A: > 100 µM

Q: What about the GI50 (DU-145 prostate) of the same compound?
A: 88.2 µM

Q: And the TGI (DU-145 prostate)?
A: > 100 µM

Q: And the GI50 (HCC-2998 colon)?
A: > 100 µM

Q: And the TGI (HCC-2998 colon)?
A: > 100 µM

Q: What about the GI50 (HCT-116 colon) of the same compound?
A: 45.3 µM

Q: And the TGI (HCT-116 colon)?
A: > 100 µM

Q: What about the GI50 (HCT-15 colon) of the same compound?
A: > 100 µM

Q: And the TGI (HCT-15 colon)?
A: > 100 µM

Q: And the GI50 (HL-60(TB) leukemia)?
A: > 100 µM

Q: And the TGI (HL-60(TB) leukemia)?
A: > 100 µM

Q: And the GI50 (HOP-62 NSCLC)?
A: 24.1 µM

Q: And the TGI (HOP-62 NSCLC)?
A: 64.5 µM

Q: And the GI50 (HOP-92 NSCLC)?
A: 15 µM

Q: What about the TGI (HOP-92 NSCLC) of the same compound?
A: 70.3 µM

Q: And the GI50 (HS 578T breast)?
A: 24.6 µM

Q: What about the TGI (HS 578T breast) of the same compound?
A: > 100 µM

Q: What about the GI50 (HT29 colon) of the same compound?
A: > 100 µM

Q: And the TGI (HT29 colon)?
A: > 100 µM

Q: What about the GI50 (IGROV1 ovarian) of the same compound?
A: 64.2 µM

Q: What about the TGI (IGROV1 ovarian) of the same compound?
A: > 100 µM

Q: And the GI50 (K-562 leukemia)?
A: 99.2 µM

Q: What about the TGI (K-562 leukemia) of the same compound?
A: > 100 µM

Q: And the GI50 (KM12 colon)?
A: > 100 µM

Q: And the TGI (KM12 colon)?
A: > 100 µM

Q: What about the GI50 (LOX IMVI melanoma) of the same compound?
A: > 100 µM

Q: And the TGI (LOX IMVI melanoma)?
A: > 100 µM

Q: What about the GI50 (M14 melanoma) of the same compound?
A: > 100 µM

Q: What about the TGI (M14 melanoma) of the same compound?
A: > 100 µM

Q: What about the GI50 (MALME-3M melanoma) of the same compound?
A: > 100 µM

Q: And the TGI (MALME-3M melanoma)?
A: > 100 µM

Q: And the GI50 (MCF7 breast)?
A: 58 µM

Q: What about the TGI (MCF7 breast) of the same compound?
A: > 100 µM

Q: What about the GI50 (MDA-MB-231 breast) of the same compound?
A: 31 µM

Q: What about the TGI (MDA-MB-231 breast) of the same compound?
A: > 100 µM

Q: What about the GI50 (MDA-MB-435) of the same compound?
A: > 100 µM

Q: What about the TGI (MDA-MB-435) of the same compound?
A: > 100 µM

Q: What about the GI50 (MOLT-4 leukemia) of the same compound?
A: 82.3 µM

Q: What about the TGI (MOLT-4 leukemia) of the same compound?
A: > 100 µM

Q: What about the GI50 (NCI-H226 lung) of the same compound?
A: 25.9 µM

Q: What about the TGI (NCI-H226 lung) of the same compound?
A: > 100 µM

Q: And the GI50 (NCI-H23 lung)?
A: 50.6 µM

Q: And the TGI (NCI-H23 lung)?
A: > 100 µM

Q: And the GI50 (NCI-H460 lung)?
A: 72.5 µM

Q: What about the TGI (NCI-H460 lung) of the same compound?
A: > 100 µM

Q: What about the GI50 (NCI-H522 lung) of the same compound?
A: 24.6 µM

Q: And the TGI (NCI-H522 lung)?
A: > 100 µM

Q: And the GI50 (NCI/ADR-RES ovarian)?
A: 44.2 µM

Q: What about the TGI (NCI/ADR-RES ovarian) of the same compound?
A: > 100 µM

Q: And the GI50 (OVCAR-3 ovarian)?
A: 43.5 µM

Q: What about the TGI (OVCAR-3 ovarian) of the same compound?
A: > 100 µM

Q: And the GI50 (OVCAR-4 ovarian)?
A: 18.6 µM

Q: What about the TGI (OVCAR-4 ovarian) of the same compound?
A: 79.9 µM

Q: And the GI50 (OVCAR-5 ovarian)?
A: > 100 µM

Q: And the TGI (OVCAR-5 ovarian)?
A: > 100 µM

Q: And the GI50 (OVCAR-8 ovarian)?
A: 66.6 µM

Q: What about the TGI (OVCAR-8 ovarian) of the same compound?
A: > 100 µM

Q: And the GI50 (PC-3 prostate)?
A: 99.9 µM

Q: And the TGI (PC-3 prostate)?
A: > 100 µM

Q: And the GI50 (RPMI-8226 leukemia)?
A: 84.4 µM

Q: What about the TGI (RPMI-8226 leukemia) of the same compound?
A: > 100 µM

Q: What about the GI50 (SF-268 CNS) of the same compound?
A: 31.2 µM

Q: And the TGI (SF-268 CNS)?
A: > 100 µM

Q: What about the GI50 (SF-295 CNS) of the same compound?
A: 32 µM

Q: What about the TGI (SF-295 CNS) of the same compound?
A: > 100 µM

Q: What about the GI50 (SF-539 CNS) of the same compound?
A: 39.4 µM

Q: And the TGI (SF-539 CNS)?
A: > 100 µM

Q: And the GI50 (SK-MEL-2 melanoma)?
A: 28.4 µM

Q: And the TGI (SK-MEL-2 melanoma)?
A: > 100 µM

Q: What about the GI50 (SK-MEL-28 melanoma) of the same compound?
A: 52.9 µM

Q: And the TGI (SK-MEL-28 melanoma)?
A: > 100 µM

Q: What about the GI50 (SK-MEL-5 melanoma) of the same compound?
A: 27.5 µM

Q: And the TGI (SK-MEL-5 melanoma)?
A: > 100 µM

Q: What about the GI50 (SK-OV-3 ovarian) of the same compound?
A: 24.2 µM

Q: And the TGI (SK-OV-3 ovarian)?
A: 55.6 µM

Q: What about the GI50 (SN12C renal) of the same compound?
A: 50.3 µM

Q: And the TGI (SN12C renal)?
A: > 100 µM

Q: And the GI50 (SNB-19 CNS)?
A: 25.7 µM

Q: What about the TGI (SNB-19 CNS) of the same compound?
A: > 100 µM

Q: What about the GI50 (SNB-75 CNS) of the same compound?
A: 10.6 µM

Q: What about the TGI (SNB-75 CNS) of the same compound?
A: 37.5 µM

Q: What about the GI50 (SR leukemia) of the same compound?
A: 58.1 µM

Q: And the TGI (SR leukemia)?
A: > 100 µM

Q: What about the GI50 (SW-620 colon) of the same compound?
A: > 100 µM

Q: And the TGI (SW-620 colon)?
A: > 100 µM

Q: What about the GI50 (T-47D breast) of the same compound?
A: 29 µM

Q: What about the TGI (T-47D breast) of the same compound?
A: > 100 µM

Q: What about the GI50 (TK-10 renal) of the same compound?
A: 25.5 µM

Q: And the TGI (TK-10 renal)?
A: 99.3 µM

Q: What about the GI50 (UACC-257 melanoma) of the same compound?
A: 57 µM

Q: And the TGI (UACC-257 melanoma)?
A: > 100 µM

Q: And the GI50 (UACC-62 melanoma)?
A: 34.5 µM

Q: What about the TGI (UACC-62 melanoma) of the same compound?
A: > 100 µM

Q: What about the GI50 (UO-31 renal) of the same compound?
A: 42.8 µM

Q: What about the TGI (UO-31 renal) of the same compound?
A: > 100 µM
